According to patent US5629430A, “Trifluoromethylpyrroloindolecarboxylic acid ester and process for production thereof” (Kyorin Pharmaceutical Co., Ltd., priority 1992, dated 1997):
Converted amounts (≈) assume the structure as drawn. Where two headings read alike, the source gives them in different places.

Columns and labels:
[1] = test system: Sarcoma-180 cells; test: Antineoplastic activity, mice having Sarcoma-180 cells transplanted subcutaneously; format: in vivo, mouse (female, CDR strain); conditions: Mus musculus, Sarcoma-180, iv, 144 h, tumor weighed six days after dosage, read-out: T/C (average tumor weight, dosed vs. solvent-dosed control); for response vs control in vivo at 0.5 mg/kg: i.v. 0.5 mg/kg single dose; for response vs control in vivo at 0.25 mg/kg: i.v. 0.25 mg/kg single dose
Procedure: (§1) The test compound was dissolved in dimethylsulfoxide, and the solution was adequately diluted with 10% Emulfore EL620(produced by Rhone Poulenc Co.) to prepare the test compound solution. The antineoplastic activity was evaluated as below.
To the lateral region of a female mouse (CDR strain, 5 to 6 week age), 3.6×10^6 to 5×10^6 Sarcoma-180 cells were transplanted subcutaneously. Next day, the test medicine solution was injected into the tail vein in a single dose. Eight to twelve mice were employed for the solvent-dosed control group, and five mice were employed for the dosed group. Six days after the dosage, the tumor was cut out, and the weight thereof was measured. The antineoplastic effect was evaluated by the ratio (T/C) of the average tumor weight of the dosed group (T) to the average tumor weight of the solvent-dosed control group (C).

[2] = test system: P388 mouse leukemia cells; test: Activity against tumor cell growth (P388, MTT, 72 h); format: cell-based; conditions: read-out: IC50 (50% growth inhibition concentration)
Procedure, shortened: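 P388 cells at 1.5×10^5 cells/ml in RPMI1640 with 10% FBS, 2 mM glutamine and 5 μM 2-hydroxyethyldisulfide; DMSO-dissolved compound diluted in medium, 72 h at 37 °C, 5% CO2. MTT added for 3 h, formazan dissolved in HCl-isopropanol, A540 read. IC50 from absorbance ratio versus untreated cells.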

[3] = test system: Colon-26 cells; test: Antineoplastic activity, mice having Colon-26 cells transplanted subcutaneously; format: in vivo, mouse (female, CDF1 strain); conditions: Mus musculus, Colon 26, iv, 168 h, read-out: T/C (average tumor weight, dosed vs. solvent-dosed control); for response vs control in vivo at 0.25 mg/kg: i.v. 0.25 mg/kg single dose on sixth day; for response vs control in vivo at 1 mg/kg: i.v. 1.0 mg/kg single dose on sixth day
Procedure: as §1
To the lateral region of a female mouse (CDF1 strain, 8 to 12 week age), 1×10^6 Colon-26 cells were transplanted subcutaneously. On the sixth day after the transplantation, the test medicine solution-was injected into the tail vein in a single dose. Seven to twelve mice were employed for the solvent-dosed control group, and five mice were employed for the dosed group. One week after the dosage, the tumor was cut out, and the weight thereof was measured. The antineoplastic effect was evaluated by the ratio (T/C) of the average tumor weight of the dosed group (T) to the average tumor weight of the solvent-dosed control group (C).

[4] = P388 mouse leukemia cells, 72 h, 37° C., MTT
[5] = i.v. 0.5 mg/kg single dose on sixth day, tumor weighed one week after dosage
[6] = tumor weighed one week after dosage

Work on COC(=O)c1c(C(F)(F)F)[nH]c2c(O)cc3c(c12)C(CCl)CN3C(=O)c1cc2cc(NC(=O)c3cnc4ccccc4c3)ccc2[nH]1 (stereo not shown) [Example 16, Methyl 1-chloromethyl-5-hydroxy-3-[5-[(quinoline-3-ylcarbonyl)amino]-1H-indol-2-ylcarbonyl]-7-trifluoromethyl-1,2,3,6-tetrahydropyrrolo[3,2-e]indole-8-carboxylate] yielded a response vs control in vivo at 0.5 mg/kg [1] of 17%, an IC50 [2, 4] of 0.16 ng/mL (≈ 0.242 nM) and a response vs control in vivo at 0.5 mg/kg [3, 5] of 16%.
COC(=O)c1c(C(F)(F)F)[nH]c2c(O)cc3c(c12)C(CCl)CN3C(=O)c1cc2cc(NC(=O)c3cc4c(OC)c(OC)c(OC)cc4[nH]3)ccc2[nH]1 (stereo not shown) [Example 14, Methyl 1-chloromethyl-5-hydroxy-7-trifluoromethyl-3-[5-[(4,5,6-trimethoxy1H-indol-2-ylcarbonyl)amino]-1H-indol-2-ylcarbonyl]-1,2,3,6-tetrahydropyrrolo[3,2-e]indole-8-carboxylate] gave a response vs control in vivo at 0.5 mg/kg [1] of 7%, an IC50 [2, 4] of 0.1 ng/mL (≈ 0.135 nM) and a response vs control in vivo at 0.5 mg/kg [3, 5] of 5%.
COC(=O)c1c(C(F)(F)F)[nH]c2c(O)cc3c(c12)C(CCl)CN3C(=O)c1cc2cc(NC(=O)c3cc4ccccc4o3)ccc2[nH]1 (stereo not shown) [Example 10, Methyl 3-[5-[(benzofuran-2-ylcarbonyl)amino]-1H-indol-2-ylcarbonyl]-1-chloromethyl-5-hydroxy-7-trifluoromethyl-1,2,3,6-tetrahydropyrrolo[3,2-e]indole-8-carboxylate] was tested, and the response vs control in vivo at 0.5 mg/kg [1] was 15%, the IC50 [2, 4] was 0.52 ng/mL (≈ 0.799 nM) and the response vs control in vivo at 0.5 mg/kg [3, 5] was 15%.
Compound COC(=O)c1c(C(F)(F)F)[nH]c2c(O)cc3c(c12)C(CCl)CN3C(=O)c1cc2cc(NC(=O)c3cc4c(OC)c(OC)c(OC)cc4cn3)ccc2[nH]1 (stereo not shown) [Example 18, Methyl 1-chloromethyl-5-hydroxy-7-trifluoromethyl-3-[5-[(5,6,7-trimethoxyisoquinolin-3-ylcarbonyl)amino]-1H-indol-2-ylcarbonyl]-1,2,3,6-tetrahydropyrrolo[3,2-e]indole-8-carboxylate] has a response vs control in vivo at 0.25 mg/kg [1] of 25%, an IC50 [2, 4] of 0.09 ng/mL (≈ 0.12 nM) and a response vs control in vivo at 0.25 mg/kg [3, 6] of 7%.
With COC(=O)c1c(C(F)(F)F)[nH]c2c(O)cc3c(c12)C(CCl)CN3C(=O)c1cc2cc(NC(=O)c3cc4ccccc4cn3)ccc2[nH]1 (stereo not shown) [Example 17, Methyl 1-chloromethyl-5-hydroxy-3-[5-[(isoquinolin-3-ylcarbonyl)amino]-1H-indol-2-ylcarbonyl]-7trifluoromethyl-1,2,3,6-tetrahydropyrrolo[3,2-e]indole-8-carboxylate] the response vs control in vivo at 0.25 mg/kg [1] was 25%, the IC50 [2, 4] was 0.09 ng/mL (≈ 0.136 nM) and the response vs control in vivo at 0.25 mg/kg [3, 6] was 18%.
With COC(=O)c1c(C(F)(F)F)[nH]c2c(O)cc3c(c12)[C@H](CCl)CN3C(=O)c1cc2cc(NC(=O)Nc3ccc4[nH]c(C(=O)N5C[C@@H](CCl)c6c5cc(O)c5[nH]c(C(F)(F)F)c(C(=O)OC)c65)cc4c3)ccc2[nH]1 [Example 108, (S,S)-3-3'-[Carbonylbis(imino-1H-indol-5,2-dicarbonyl)]bis-[1-chloromethyl-5-hydroxy-7-trifluoromethyl-1,2,3,6-tetrahydropyrrolo[3,2-e]indole-8-carboxylic acid methyl ester]] the IC50 [2, 4] was 0.007 ng/mL (≈ 0.00673 nM) and the response vs control in vivo at 0.0156 mg/kg ([3]; i.v. 0.0156 mg/kg single dose on sixth day, tumor weighed one week after dosage) was 6%.
In the case of COC(=O)c1c(C(F)(F)F)[nH]c2c(O)cc3c(c12)[C@H](CCl)CN3C(=O)c1cc2cc(NC(=O)c3cc4cccc(OC)c4o3)ccc2[nH]1 [Example 63, Methyl (1S)-1-chloromethyl-5-hydroxy-3-[5-[(7-methoxybenzofuran-2-ylcarbonyl)amino]-1H-indol-2-ylcarbonyl]-7-trifluoromethyl-1,2,3,6-tetrahydropyrrolo[3,2-e]indole-8-carboxylate], the IC50 [2, 4] is reported as 0.55 ng/mL (≈ 0.808 nM) and the response vs control in vivo at 0.5 mg/kg [3, 5] is reported as 4%.
COC(=O)c1c(C(F)(F)F)[nH]c2c(O)cc3c(c12)C(CCl)CN3C(=O)c1cc2cc(-c3cc4ccccc4o3)ccc2[nH]1 (stereo not shown) [Example 12] gave a response vs control in vivo at 1 mg/kg ([1]; i.v. 1.0 mg/kg single dose) of 11% and a response vs control in vivo at 1 mg/kg [3, 6] of 16%.
COC(=O)c1c(C(F)(F)F)[nH]c2c(O)cc3c(c12)C(CCl)CN3C(=O)c1cc2cc(NC(=O)c3cc4cc(OC)c(OC)c(OC)c4[nH]3)ccc2[nH]1 (stereo not shown) [Example 13, Methyl 1-chloromethyl-5-hydroxy-7-trifluoromethyl-3-[5-[(5,6,7-trimethoxy-1H-indol-2-ylcarbonyl)amino]-1H-indol-2-ylcarbonyl]-1,2,3,6-tetrahydropyrrolo[3,2-e]indole-8-carboxylate] was tested, and the response vs control in vivo at 0.25 mg/kg [1] was 11%, the IC50 [2, 4] was 0.21 ng/mL (≈ 0.284 nM) and the response vs control in vivo at 0.25 mg/kg [3, 6] was 17%.
COC(=O)c1c(C(F)(F)F)[nH]c2c(O)cc3c(c12)[C@H](CCl)CN3C(=O)c1cc2cc(NC(=O)c3cc4cc(OC)ccc4o3)ccc2[nH]1 [Example 76, Methyl (1S)-1-chloromethyl-5-hydroxy-3-[5-(5-methoxybenzofuran-2-ylcarbonyl)amino-1H-indol-2-ylcarbonyl]-7-trifluoromethyl-1,2,3,6-tetrahydropyrrolo[3,2-e]indole-8-carboxylate] showed an IC50 [2, 4] of 0.2 ng/mL (≈ 0.294 nM) and a response vs control in vivo at 0.5 mg/kg [3, 5] of 6%.
Compound COC(=O)c1c(C(F)(F)F)[nH]c2c(OC(=O)N3CCN(C)CC3)cc3c(c12)[C@H](CCl)CN3C(=O)c1cc2cc(NC(=O)c3cc4c(cn3)[nH]c3ccccc34)ccc2[nH]1 [Example 98, Methyl (1S)-1-chloromethyl-5-(4-methylpiperazin-1-ylcarbonyl)oxy-3-[5-[(9H-pyrido[3,4-b]indol-3-ylcarbonyl)amino]-1H-indol-2-ylcarbonyl]-7-trifluoromethyl-1,2,3,6-tetrahydropyrrolo[3,2-e]indole-8-carboxylate] has an IC50 ([2]; Mus musculus, P388, 72 h) of 5.7 ng/mL (≈ 6.89 nM) and a response vs control in vivo at 0.5 mg/kg [3] of 29%.
COC(=O)c1c(C(F)(F)F)[nH]c2c1[C@@]13C[C@@H]1CN(C(=O)/C=C/c1ccc(OC)cc1)C3=CC2=O [Example 90, Methyl (7bR, 8aS)-2-[2-(4-methoxyphenyl)ethylene-1-ylcarbonyl)-6-trifluoromethyl-1,2,8,8a-tetrahydrocyclopropa[c]pyrrolo[3,2-e]indol-4 (5H)-one-7-carboxylate] gave an IC50 [2, 4] of 0.9 ng/mL (≈ 1.91 nM) and a response vs control in vivo at 1 mg/kg [3, 6] of 31%.
COC(=O)c1c(C(F)(F)F)[nH]c2c(OC(=O)N3CCN(C)CC3)cc3c(c12)[C@H](CCl)CN3C(=O)c1cc2cc(NC(=O)c3cc4ccccc4cn3)ccc2[nH]1 [Example 107, Methyl (1S)-1-chloromethyl-3-[5-[(isoquinolin-3-ylcarbonyl)amino]-1H-indol-2-ylcarbonyl]-5-(4-methylpiperazin-1-ylcarbonyl)oxy-7-trifluoromethyl-1,2,3,6-tetrahydropyrrolo[3,2-e]indole-8-carboxylate] showed an IC50 ([2]; Mus musculus, P388, 72 h) of 4.6 ng/mL (≈ 5.84 nM) and a response vs control in vivo at 0.5 mg/kg [3] of 7%.
Compound COC(=O)c1c(C(F)(F)F)[nH]c2c(O)cc3c(c12)[C@H](CCl)CN3C(=O)c1cc2cc(NC(=O)c3cc4ccc(OC)cc4o3)ccc2[nH]1 [Example 77, Methyl (1S)-1-chloromethyl-5-hydroxy-3-[5-(6-methoxybenzofuran-2-ylcarbonyl)amino-1H-indol-2-ylcarbonyl]-7-trifluoromethyl-1,2,3,6-tetrahydropyrrolo[3,2-e]indole-8-carboxylate] has an IC50 [2, 4] of 0.23 ng/mL (≈ 0.338 nM) and a response vs control in vivo at 0.5 mg/kg [3, 5] of 6%.
